Experimental data reported in patent publication US20260365696A1, “INHIBITORS OF PTP1B / NCK1 INTERACTION AND METHODS OF MAKING AND USING SAME” (Radella Pharmaceuticals LLC, priority 2023, published 2026).

Columns and labels:
HFD-fed mice = experiment: High-fat diet-induced obesity and type 2 diabetes model; assay type: in vivo, mouse; conditions: 30 mg/kg IP daily, 7 weeks
Excerpt: Animals: All animals were housed and tested following European (Directive on the Protection of Animals used for Scientific Purposes, 2010/63/EU) and UK Home Office regulations. Experiments were approved by the University Ethics Board and carried out in accordance with the Animal (Scientific Procedures) Act 1986 and following ARRIVE guidelines. C57BL/6 male mice (~3-4 months) were purchased from Charles River, UK. All mice received high fat and cholesterol diet (42% fat plus 0.2% cholesterol, #TD.88137, Envigo, US) to induce experimental type 2 diabetes and obesity phenotype. All mice had ad libitum access to food and water and were kept in a 12 h light/dark cycle.
Briefly, after 8 weeks of high fat/high cholesterol diet feeding, mice were counterbalanced according to their body weight in to control (n=10) or MD20 30 mg/kg (n=10) groups. MD20 compound (30 mg/kg) was administered once daily via intraperitoneal (IP) injection for 7 weeks, whereas control mice received daily IP injection of vehicle (PBS). MD20 was kept at −20 °C and dissolved in sterile phosphate buffered saline (PBS) freshly every day before the injection. Three mice died during the study, and the final number of animals was: control (n=9) and MD20 30 mg/kg (n=8).
Bodyweights and body mass composition: Bodyweights were recorded during the study. Fat mass and lean mass composition were analysed using an EchoMRI scanner (EchoMedical Systems, Houston, TX, U.S.A.).
Metabolic measurements: All animals were 5 h-fasted before metabolic testing. Tail blood glucose was measured using AlphaTRAK 2 glucose strips and glucometer (Abbot, UK). Glucose tolerance tests (GTT) and insulin tolerance tests (ITT) were performed by IP injection of 2 mg/g of glucose (GTT) or 0.6 mU/g insulin (ITT), and glucose levels were measured at 15, 30, 60 and 90 min post-injection.
Serum and liver assays: Trunk-derived blood was collected from 5 h-fasted mice into serum separator microtubes and kept at −80 °C. Serum was used for insulin (#EZRMI-13K, Merck), leptin (#90030, Crystal Chem), free fatty acids (FFA; #mak044, Sigma-Aldrich), cholesterol (#MAK043, Sigma Aldrich), alanine, and aspartate aminotransferase (ALT and AST; ab105134 and ab105135, Abcam) analyses. Serum and liver triglycerides were determined using triglyceride reagents (#T2449, #F6428, #G7793, Sigma Aldrich).
Statistical analyses: Data were reported as means±SEM and analysed using one- or two-way ANOVA with Bonferroni post hoc tests, as appropriate. GraphPad Prism (V8, GraphPad Software, Inc., San Diego, California, USA) was used for statistical analyses. P-values <0.05 were considered significant.

[1] = Caco-2 permeability assay; assay type: in vitro ADME, human; conditions: human, Papp(B-A)/Papp(A-B), 120 min
Experimental: (§1) Permeability (Caco-2 assay): Caco 2 cells were used as an in vitro model of the human intestinal epithelium and to permit assessment of the intestinal permeability of potential drugs. Test compound was added to either the apical or basolateral side of a confluent monolayer of Caco 2 cells and permeability was measured by monitoring the appearance of the test compound on the opposite side of the monolayer using LC-MS/MS. When performing a bi-directional assay, the efflux ratio (ER) was calculated from the ratio of B-A and A-B permeabilities.
(§2) Briefly, Caco 2 cells obtained (ATCC) were used between passage numbers 40 and 60. Cells were seeded on to Transwell plates at 1×10^5 cells/cm^2. The cells were cultured in DMEM and media was changed every two or three days. On day 20, the permeability study was performed. […]
(§3) Test and control compounds were quantified by LC-MS/MS cassette analysis using a 7-point calibration with appropriate dilution of the samples. […] The starting concentration (C0) was determined from the dosing solution and the experimental recovery was calculated from C0 and both apical and basolateral compartment concentrations.
(§4) Data Analysis: The permeability coefficient (Papp) for each compound was calculated from the following equation: […]
(§5) For bi directional experiments, an efflux ratio (ER) was calculated from mean A-B and B-A data using the following equation: […]

Caco-2 cells = experiment: Caco-2 permeability assay; assay type: in vitro ADME, human
Experimental: as §1, §2, §3, §4, §5

Question: With Ac-PRPPKR-NH2 [MD20, Ac-PRPPKR-NH2] as the substance, how does the “fasted basal glucose levels” value (HFD-fed mice) read?
Answer: No significant differences

Question: And the fasted serum cholesterol (HFD-fed mice)?
Answer: No significant differences

Question: What about the “fasted serum free fatty acids” value (HFD-fed mice) of the same substance?
Answer: No significant differences

Question: What about the fasted serum insulin (HFD-fed mice) of the same substance?
Answer: No significant differences

Question: What about the fasted serum leptin (HFD-fed mice) of the same substance?
Answer: No significant differences

Question: What about the hepatic toxicity (HFD-fed mice) of the same substance?
Answer: most likely did not induce hepatic toxicity

Question: What about the liver triglycerides (HFD-fed mice) of the same substance?
Answer: No significant differences

Question: What about the “serum ALT” value (HFD-fed mice) of the same substance?
Answer: No significant differences

Question: What about the “serum AST” value (HFD-fed mice) of the same substance?
Answer: No significant differences

Question: And the serum triglycerides (HFD-fed mice)?
Answer: No significant differences

Question: What about the body weight gain (HFD-fed mice; vs control) of the same substance?
Answer: inhibited body weight gain

Question: And the fat mass gain (HFD-fed mice; vs control)?
Answer: inhibited fat mass gain

Question: And the “glucose tolerance test (GTT)” value (HFD-fed mice; 2 mg/g glucose)?
Answer: No significant differences

Question: And the “insulin sensitivity during ITT” value (HFD-fed mice; 0.6 mU/g insulin)?
Answer: improved insulin sensitivity during ITT

Question: What about the efflux ratio at 2 h [1] of the same substance?
Answer: 0.252

Question: And the “permeation of cells relative to antihypertensive drugs” value (Caco-2 cells)?
Answer: able to permeate the cells at the same rate as some antihypertensive drugs (e.g., nicardipine)
